Results from PubChem BioAssay AID179 (DTP/NCI, 2004).
pEC50, pIC50: −log10 of the molar value. Active and inactive are the calls of the source.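 Rule for the calls: active = compounds giving half or more protection of infected cells from virus-caused growth loss, again on retest; inactive = the rest.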

System: CEM cells HIV-1 protection, formazan growth assay
Assay: NCI AIDS Antiviral Assay
Settings: for pIC50: measured here: growth of uninfected CEM cells
In short: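 Protection of CEM cells against HIV-1 measured as cell growth via soluble formazan read-out, with five concentrations tested on both infected and uninfected cells; failure to protect may reflect toxicity.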

SMILES | pEC50 | pIC50 | outcome
O=C(O)C1CC2=C(CN1)Cc1ccccc12 (stereo unspecified) | < 5.03 | < 5.03 | –
CCCn1c(SCCSc2c3ccccc3c(-c3nc(F)nc(F)n3)n2CCC)c2ccccc2c1-c1nc(F)nc(F)n1 | < 5.39 | 5.40 | –
COn1c2ccccc2c2c1cc1ccccc1[n+]2[O-] | < 4.17 | 4.50 | –
COc1ccc(S(=O)c2ccc(OC)cc2)cc1 | < 3.02 | 3.31 | –
Cc1nc(Cl)nc2c1C(=O)Nc1ccccc1N2 | < 4.28 | 4.57 | –
CC(C)N(C(=O)c1cccc(C(=O)N(C(C)C)C(C)C)c1)C(C)C | < 3.12 | 3.33 | –
O=c1[nH]n(Cc2ccccc2CCl)c2ccc([N+](=O)[O-])cc12 | < 3.70 | 4.42 | –
Cc1ccc(SCC(CF)OCn2cnc3c(=O)[nH]c(N)nc32)cc1 (stereo unspecified) | < 4.70 | < 4.70 | –
O=C1O[C@H](COC(=O)c2ccccc2)[C@@H](OC(=O)c2ccccc2)C=C1OC(=O)c1ccccc1 | < 3.70 | 4.69 | –
Cc1cc(C)c(NS(=O)c2cccc(C(F)(F)F)c2)c(C)c1 (stereo unspecified) | < 3.96 | < 3.96 | –
CC(=N\N=C\c1ccccn1)/C(C)=N/N=C(C)/C(C)=N/N=C/c1ccccn1 | – | – | inactive
O=Nc1c(O)ccc2ccccc12 | < 3.70 | 5.62 | –
COc1ccccc1C(O)(c1ccccc1)C(O)(c1ccccc1)c1ccccc1OC (stereo unspecified) | < 4.80 | < 4.80 | –
CC(C)[C@@H]1CC[C@@H](C)C[C@H]1OC(=O)/C=C1\C(C(=O)O[C@@H]2C[C@H](C)CC[C@H]2C(C)C)[C@H]2C=C[C@@H]1O2 (stereo partly specified) | < 3.70 | < 3.70 | –
CN1CCC2(CC1)N=C1CCN(C)CC1S2 (stereo unspecified) | < 3.34 | 4.06 | –
Cc1c(C)c2c(c(N)c1C#N)C(=O)N(OS(=O)(=O)c1ccccc1)C2=O | < 3.82 | 4.59 | –
CCCCCCCCCCCCCCCCCC(CCCCCCCCCCCCCCCCC)OP(=O)(O)O | – | – | inactive
COc1ccc(C[C@H]2COC(=O)[C@@H]2Cc2cc(OC)c(O)c(OC)c2)cc1OC | < 3.70 | 4.40 | –
O=C1NC(N2CCCCC2)=N/C1=C\c1ccccc1 | < 3.70 | < 3.70 | –
Cc1cc2c(cc1Cl)SC(C(=O)c1ccc(Cl)c(Cl)c1)=NS2(=O)=O | – | – | inactive
CC(C)C(=O)NC(=S)Nc1ccc([N+](=O)[O-])cc1C#N | < 3.91 | < 3.91 | –
O=C1C(c2ccccc2)C2C=CC(C2)N1O (stereo unspecified) | < 3.70 | < 3.70 | –
O=C(NO)c1cccc(OCc2ccc(Br)cc2)c1 | < 3.70 | 5.04 | –
OC1c2cccn2-c2cc(Cl)ccc2SC1c1ccccc1 (stereo unspecified) | < 4.15 | 5.35 | –

SMILES | pEC50 | pIC50 | outcome
O=S1Cc2ccccc2CSS1 (stereo unspecified) | – | – | inactive
O=C(NNC(=S)Nc1ccccc1)c1csc(NC(=S)NC2CCCCC2)n1 | 5.16 | 5.13 | –
O=[P+](O)c1ccsc1 | – | – | inactive
CCC/C(Cl)=N/OC(=O)Nc1cccc(F)c1 | < 4.70 | 5.50 | –
O=C(O)Cc1cc(=O)[nH]n(-c2ccccc2)c1=O | < 3.70 | < 3.70 | –
CCCCCCCCCCCC1=C(NCCS)C(=O)C=C(NCCS)C1=O | < 5.90 | < 5.90 | –
Cc1ccccc1SSc1ccccc1C | – | – | inactive
CCCCOP(=O)(OCCCC)C(NS(=O)(=O)c1ccccc1)(C(=O)OCC)C(F)(F)F (stereo unspecified) | < 3.70 | 4.72 | –
CCOC(=O)c1ccc(CSc2ccc(N)cc2)c([N+](=O)[O-])c1 | < 4.39 | < 4.39 | –
O=C(Nc1ccc(-c2cccs2)oc1=O)c1ccccc1 | < 3.70 | < 3.70 | –
N#CCc1ccccc1C(=O)O | < 2.81 | 3.05 | –
O=c1[nH]c(=O)n(CCOc2ccc(Cl)cc2)cc1Nc1ccccc1 | < 3.70 | 3.87 | –
CCOC(=O)/C=C/[C@H](O[Si](c1ccccc1)(c1ccccc1)c1ccccc1)C(C)(C)C | < 3.70 | < 3.70 | –
O=c1[nH]n(-c2ccccc2)c(=O)cc1Cl | < 4.07 | < 4.07 | –
CC(=O)NS(=O)(=O)c1ccc(-n2sc3ccccc3c2=O)cc1 | 4.91 | 4.51 | –
OCC1C(CO)C2CC1C1N=NN(c3ccccc3)C21 (stereo unspecified) | < 3.49 | < 3.49 | –
Cc1cccc(/C=N/NC(=S)Nc2ccccc2)n1 | < 3.70 | 5.70 | –
CC(C)C1SCc2nc3ccccc3n21 (stereo unspecified) | < 3.70 | 4.02 | –
CCCC(=O)Nc1c(I)cc(I)c(CC(CC)C(=O)O)c1I (stereo unspecified) | < 3.70 | < 3.70 | –
COc1ccc(-c2cc(Cc3cccs3)c(=O)[nH]n2)cc1 | – | – | inactive
CN(C)c1ccc(C(C#N)NNC(=O)Cc2ccccc2)cc1 (stereo unspecified) | < 4.07 | < 4.07 | –
CCN(C(=O)c1ccccc1C)C(c1ccccc1)P(=O)(c1ccccc1)c1ccccc1 (stereo unspecified) | – | – | inactive
O=C(O)c1ccc2c(c1C(=O)O)C(=O)c1ccccc1C2=O | < 3.70 | < 3.70 | –
CCCn1c(SCC)c2ccccc2c1-c1nc(F)nc(F)n1 | < 5.09 | < 5.09 | –

SMILES | pEC50 | pIC50 | outcome
c1ccc(N2N=NC3CCCC32N2CCCCC2)cc1 (stereo unspecified) | < 3.70 | 3.96 | –
O=C(N/N=C(/c1ccccc1)C(F)(F)F)c1ccncc1 | < 3.70 | < 3.70 | –
COc1cc2ccnc3c(=C(SC)SC)c(=O)c(c1OC)c23 | – | – | inactive
CCCCN(CCCC)c1c([N+](=O)[O-])c(=O)nc2ccccn12 | < 3.10 | 5.77 | –
O=S(=O)(c1ccc(O)cc1)c1ccc(O)cc1 | < 3.70 | 3.80 | –
CCOC(=O)c1ccc(N2C(=O)c3cccc4cccc(c34)C2=O)c([N+](=O)[O-])c1 | < 4.00 | 4.43 | –
CC1(C)CCc2cc3c(cc2O1)OC(C)(C)C1c2cc(O)c(OCc4ccccc4)cc2OC31 (stereo unspecified) | < 3.70 | 4.21 | –
COc1ccc(-c2coc3c4c(c(CC=C(C)C)c(O)c3c2=O)OC(C)(C)C=C4)cc1OC | < 4.00 | < 4.00 | –
CCCC1c2c(cc(=O)[nH]c2O)C(=O)N1Cc1ccccc1 (stereo unspecified) | < 4.20 | < 4.20 | –
O=C1Sc2ccccc2C(=O)N2C1CSC2c1ccccc1 (stereo unspecified) | < 3.70 | < 3.70 | –
Brc1ccc2[nH]c3nc(N/N=C/c4cccs4)nnc3c2c1 | < 3.70 | < 3.70 | –
O=S(=O)(O)c1cc2c(c(S(=O)(=O)O)c1)[O][Sb]1([O]2)[O]c2cc(S(=O)(=O)O)cc(S(=O)(=O)O)c2[O]1 | < 3.49 | < 3.49 | –
CN(C)N=Nc1cn[nH]c1C(N)=O | < 3.86 | 5.17 | –
CCCc1cc(=O)oc2c3c(c4c(c12)OC(C)(C)CC4)O[C@H](C)C(C)C3=O (stereo partly specified) | 4.91 | 3.73 | –
CC1NOC(=O)C1N=Nc1ccccc1Br (stereo unspecified) | < 4.18 | 4.20 | –
Nc1nc2cc(CNc3ccc(C(=O)NC(CCC(=O)O)C(=O)O)cc3)ccc2nc1-c1ccccc1 (stereo unspecified) | < 3.70 | 4.91 | –
CN1NC(c2ccccc2)=C(C#N)C(=O)CC1c1cccs1 (stereo unspecified) | < 3.70 | < 3.70 | –
CC[N+]1(C2=C([O-])C(F)(F)C2=O)CCCCC1 | < 3.70 | < 3.70 | –
COc1ccc(Br)c(C(=O)N2CCc3ccccc32)c1N | – | – | inactive
Cc1cc(NC(=O)Nc2cc(F)ccc2F)no1 | < 3.70 | 3.91 | –
C[n+]1c2ccccc2c(CNc2ccc(S(=O)(=O)N=C(N)N)cc2)c2ccccc21 | – | – | inactive
Cc1ccc(S(=O)(=O)/C(C#N)=C/NC(=S)Nc2cc(Cl)ccc2Cl)cc1 | – | – | inactive
CCCCCCCCCCCc1c2oc3ccccc3nc-2cc(Nc2ccccc2O)c1=O | < 5.53 | < 5.53 | –
COc1ccc(-c2c(C3=NCCCN3)nnn2-c2ccccc2)cc1 | < 3.12 | 3.55 | –

SMILES | pEC50 | pIC50 | outcome
Cc1c(/C=N/NC(=S)Nc2ccccc2Cl)c(=O)n(-c2ccccc2)n1C | < 3.70 | 4.57 | –
c1cc2c(cc1NC1=NCCO1)OCO2 | < 3.70 | 4.23 | –
O=C1OC(CCCN2CCCCC2)(c2ccccc2)CC12CCCC2 (stereo unspecified) | < 3.70 | 3.72 | –
O=c1[nH]c(=O)n(C2CC(F)(F)C(CO)O2)cc1COCC(F)(F)F (stereo unspecified) | < 3.76 | < 3.76 | –
c1ccc(CCCC2Sc3cccc4cccc(c34)S2)cc1 | < 4.93 | < 4.93 | –
COC1(OC)CCCc2c1no[n+]2[O-] | < 3.70 | < 3.70 | –
CC(=O)O[C@@H]1[C@H](OC(=O)CC(C)C)c2c(ccc3ccc(=O)oc23)OC1(C)C | 4.87 | 4.27 | –
COc1ccc(Cn2c3ccc([N+](=O)[O-])cc3c(=O)n2Cc2ccccn2)cc1 | < 3.70 | < 3.70 | –
COc1ccc(C2CC3(c4ccccc4)ON=C(c4ccccc4)N3c3ccccc3S2)cc1 (stereo unspecified) | < 3.70 | < 3.70 | –
COP(=O)(OC)C(NC(=O)C(F)(F)F)(c1ccccc1)C(F)(F)F (stereo unspecified) | < 3.70 | < 3.70 | –
CC(=O)Nc1c(C#N)c2n(c1C(=O)Nc1ccccc1)CCCC2 | < 3.70 | < 3.70 | –
Cc1ccc2c(c1)C(=O)CC1CC(=O)c3ccccc3C21 (stereo unspecified) | < 3.70 | < 3.70 | –
Cc1ccc2c(c1)C1(OC(=O)c3ccccc31)c1ccc(F)cc1O2 (stereo unspecified) | < 4.04 | 4.64 | –
CCC(C)NC1=NCC(C)S1 (stereo unspecified) | < 3.70 | < 3.70 | –
Cc1cc(C)n(-c2ccnc3cc(Cl)ccc23)n1 | < 3.30 | 3.67 | –
CC(=O)n1nc(C)c(-c2onc3ccc(Cl)cc23)c1C | 4.39 | 4.35 | –
N#Cc1cc2c(n(NS(=O)(=O)c3ccccc3)c1=O)CCCCC2 | < 3.70 | < 3.70 | –
O=C(O)CCS(=O)(=O)O | < 3.70 | < 3.70 | –
O=C1NC(=S)N/C1=C\c1ccc(Br)s1 | < 3.70 | 3.95 | –
Cn1c(CCC2(C)Cc3ccccc3C(=O)O2)cc2ccccc2c1=O (stereo unspecified) | < 3.70 | 4.44 | –
COc1ccc2c(c[n+](C)c3c4cc5c(cc4ccc23)OCO5)c1OC | < 5.49 | 6.43 | –
NC(=O)c1nnc2cc(F)ccc2c1N | < 3.70 | 4.13 | –
